Data: ChEMBL document CHEMBL1201862, “PubChem BioAssay data set” (2004)
The source made the active and inactive calls.

Key:
[1] = biological target: T1, Low molecular weight phosphotyrosine protein phosphatase (Homo sapiens, UniProt P24666); format: functional; settings: read-out: IC50_Mean;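 further: Dose-response confirmation assay measuring inhibition of LMPTP enzyme activity by fluorescence intensity read-out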
T1 sequence (P24666 whole entry): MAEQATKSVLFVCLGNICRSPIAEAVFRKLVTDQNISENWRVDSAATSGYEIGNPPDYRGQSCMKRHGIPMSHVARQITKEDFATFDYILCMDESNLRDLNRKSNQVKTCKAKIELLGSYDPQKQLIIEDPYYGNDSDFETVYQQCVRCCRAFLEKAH

Escherichia coli = assay: microbe, parasite or virus in culture
[2] = HepG2 cell cytotoxicity, dose response, cytotoxicity control for Shn3 inhibitor project, CellTiter-Glo, cherry-picked (AID 624134); format: functional, cell-based
[3] = Shn3 3'UTR reporter inhibitors, dose response, cell-based, Clone20 osteoblasts, firefly luciferase, cherry-picked (AID 624132); format: functional;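 further: firefly luciferase luminescence from reporter carrying the Shn3 3'UTR in osteoblasts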
[4] = control 3'UTR Renilla luciferase suppression, dose response, counter-screen for Shn3 inhibitor project, cell-based, Clone20-Shn3RL, cherry-picked (AID 624133); format: functional
Paired box protein Pax-8 = Paired box protein Pax-8 (Homo sapiens, UniProt Q06710); assay: inhibitors of PAX8-driven TPO luciferase reporter, dose response, RMG-I cells, cherry-pick (AID 687027); format: functional, cell-based;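 further: luciferase reporter driven by Pax8 target thyroperoxidase promoter measured by SteadyGlo luminescence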
[5] = non-specific cell cytotoxicity, dose response, cytotoxicity control for PAX8 inhibitor project, plate reader, dry powder samples (AID 743021); format: functional, cell-based
[6] = biological target: T2, Long-chain-fatty-acid--AMP ligase FadD28 (Mycobacterium tuberculosis, UniProt P9WQ59); assay: Fluorescence polarization aasay to screen for inhibitors that compete for the binding of FadD28 to a bisubstrate Measured in Biochemical System Using Plate Reader - 2147-01_Inhibitor_Dose_CherryPick_Activity.; format: functional, Mycobacterium tuberculosis H37Rv
T2 sequence (P9WQ59 whole entry): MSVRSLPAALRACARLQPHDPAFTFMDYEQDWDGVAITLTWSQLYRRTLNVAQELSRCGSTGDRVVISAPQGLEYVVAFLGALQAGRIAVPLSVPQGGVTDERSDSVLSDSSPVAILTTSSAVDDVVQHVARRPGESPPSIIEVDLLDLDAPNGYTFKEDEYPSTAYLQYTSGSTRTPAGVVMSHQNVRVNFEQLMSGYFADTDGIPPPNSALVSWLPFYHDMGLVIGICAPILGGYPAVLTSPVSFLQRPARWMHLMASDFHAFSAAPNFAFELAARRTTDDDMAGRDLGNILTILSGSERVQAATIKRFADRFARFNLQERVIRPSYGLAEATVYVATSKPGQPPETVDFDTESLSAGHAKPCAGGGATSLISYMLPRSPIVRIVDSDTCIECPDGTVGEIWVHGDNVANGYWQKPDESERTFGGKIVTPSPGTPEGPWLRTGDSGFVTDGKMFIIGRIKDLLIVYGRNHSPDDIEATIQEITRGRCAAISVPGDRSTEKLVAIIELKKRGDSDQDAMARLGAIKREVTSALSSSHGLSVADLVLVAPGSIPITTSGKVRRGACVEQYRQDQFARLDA

[7] = biological target: Eukaryotic translation initiation factor 4E (Mus musculus, UniProt P63073); assay: eIF4E–eIF4G protein interaction inhibitors, dose response, biochemical, TR-FRET (AID 855); format: functional;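 further: potency for disrupting eIF4E binding to eIF4GI seen as loss of FRET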
[8] = A549 cell cytotoxicity, dose response, cytotoxicity control, plate reader, cherry-pick, antagonist series (AID 743412); format: functional, cell-based
[9] = LGR2 antagonists, dose response, cell-based, HEK293, CRE-luciferase reporter, cherry pick, set 2 (AID 743343); format: functional;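 further: transfected cells were stimulated with diluted bursicon conditioned medium after compound addition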
[10] = MC4R antagonists, dose response, counter-screen for LGR2 antagonist project, cell-based, plate reader, cherry pick (AID 743444); format: functional;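 further: transfected HEK 293 cells stimulated with alpha-MSH peptide; potency of inhibitors of the alpha-MSH evoked signal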
[11] = biological target: Luciferin 4-monooxygenase (Photinus pyralis, UniProt P08659); assay: firefly luciferase enzyme inhibitors, dose response, biochemical, luminescence (AID 1891)
[12] = Luminescence Cell-Based Dose Confirmation HTS to Identify Inhibitors of Platelet Dense Granule Release. [Related pubchem assays: 1663 (Primary HTS), 1678 (Summary of Project)]; format: functional

Chain of Eukaryotic translation initiation factor 4E (P63073 whole entry): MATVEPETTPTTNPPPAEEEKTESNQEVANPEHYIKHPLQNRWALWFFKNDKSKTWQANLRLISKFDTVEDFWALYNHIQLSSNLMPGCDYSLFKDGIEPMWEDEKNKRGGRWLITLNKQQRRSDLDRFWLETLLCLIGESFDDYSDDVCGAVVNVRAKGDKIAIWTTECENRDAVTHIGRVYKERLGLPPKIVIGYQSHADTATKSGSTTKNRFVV
Chain of Luciferin 4-monooxygenase (P08659 whole entry): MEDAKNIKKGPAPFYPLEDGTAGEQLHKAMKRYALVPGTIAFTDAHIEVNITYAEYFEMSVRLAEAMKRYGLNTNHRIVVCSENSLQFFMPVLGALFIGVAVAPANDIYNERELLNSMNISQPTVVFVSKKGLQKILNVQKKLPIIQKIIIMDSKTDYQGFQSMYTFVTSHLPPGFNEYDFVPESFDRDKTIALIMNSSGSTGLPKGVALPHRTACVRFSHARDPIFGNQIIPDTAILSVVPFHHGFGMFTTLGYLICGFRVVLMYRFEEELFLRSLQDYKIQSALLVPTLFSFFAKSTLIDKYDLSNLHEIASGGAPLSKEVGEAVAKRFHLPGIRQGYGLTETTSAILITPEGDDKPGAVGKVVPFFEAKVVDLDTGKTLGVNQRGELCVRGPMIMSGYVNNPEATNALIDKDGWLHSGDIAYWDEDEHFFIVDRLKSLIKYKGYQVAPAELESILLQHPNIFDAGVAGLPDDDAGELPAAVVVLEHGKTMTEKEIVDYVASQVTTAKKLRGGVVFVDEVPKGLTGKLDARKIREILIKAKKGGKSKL
Chain of Paired box protein Pax-8 (Q06710 whole entry): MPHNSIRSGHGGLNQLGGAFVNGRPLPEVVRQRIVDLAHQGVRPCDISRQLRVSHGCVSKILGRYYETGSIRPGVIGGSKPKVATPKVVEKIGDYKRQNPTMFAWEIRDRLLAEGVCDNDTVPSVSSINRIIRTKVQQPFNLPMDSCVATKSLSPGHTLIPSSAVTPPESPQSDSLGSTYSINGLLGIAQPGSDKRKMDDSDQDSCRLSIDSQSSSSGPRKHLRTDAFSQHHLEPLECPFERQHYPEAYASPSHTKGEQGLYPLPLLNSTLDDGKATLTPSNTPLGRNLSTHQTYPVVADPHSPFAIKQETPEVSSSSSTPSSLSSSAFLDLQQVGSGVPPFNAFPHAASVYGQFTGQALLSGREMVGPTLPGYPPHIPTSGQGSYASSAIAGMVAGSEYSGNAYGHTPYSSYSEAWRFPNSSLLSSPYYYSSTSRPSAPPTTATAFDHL

With `O=C(O)c1ccc(/C=N/NC(=O)c2cc3c(ccc4ccccc43)o2)cc1` the IC50 [1] was 16.2 µM (active).
For `COc1cc(NC(=O)C2CCCCC2)c(OC)cc1NC(=O)c1ccco1`, the AC50 (Escherichia coli) was 30.6 µM (active).
For `COC1CC2C=C(C)C=CC=CC(=O)NC(c3ccccc3)CC=CCCC(O)CC(O)=C2C1=O` (stereo not given), the AC50 [2] was 3.98 µM (active), the AC50 [3] was 0.629 µM (active) and the AC50 [4] was 1.48 µM (active). The AC50 (Paired box protein Pax-8) was 0.673 µM (active) and the AC50 [5] was 4.97 µM (active).
For `C=CCn1cc(CN2CCC(C(=O)Nc3ccc(Oc4cccnc4)cc3)CC2)c(C)n1`, the AC50 [6] was 21 µM (active).
For `Cc1onc(-c2ccccc2)c1C(=O)Nc1nc(-c2cc(F)ccc2F)cs1`, the AC50 (Escherichia coli) was 38.9 µM (active).
In the case of `COc1cccc2sc(NN)nc12`, the AC50 [6] is reported as > 100 µM (inactive).
With `CCn1c(SCC(=O)Nc2ccccc2OC)nc2ccccc2c1=O` the IC50 [7] was > 64 µM (inactive).
In the case of `O=[N+]([O-])c1cccc(-c2ccc(/C=N/n3c(S)nnc3-c3ccccc3)o2)c1`, the IC50 [7] is reported as > 64 µM (inactive).
In the case of `Cc1ccc2[nH]c(-c3ccc(NC(=O)C4CCCO4)cc3)nc2c1` (stereo not given), the AC50 [8] is reported as > 52 µM (inactive), the AC50 [9] is reported as 5.48 µM (active) and the AC50 [10] is reported as 11.9 µM (active).
In the case of `Cc1cccc(NC(=O)CN2C(=O)S/C(=C\c3cc(C)n(C)c3C)C2=O)c1`, the AC50 [6] is reported as 0.381 µM (active).
For `COc1cccc(CC(=O)Nc2nc3c(s2)C(=O)CC(C)(C)C3)c1`, the EC50 [11] was > 112 µM (not active), the EC50 [12] was > 112 µM (not active) and the AC50 [5] was 41.9 µM (active).
In the case of `Nc1nnc(CC(=O)N2CCCCC2)s1`, the IC50 [7] is reported as > 64 µM (inactive).
